This note sets out measurements from patent publication US20090311217A1, “3-SUBSTITUTED-1H-INDOLE COMPOUNDS, THEIR USE AS MTOR KINASE AND PI3 KINASE INHIBITORS, AND THEIR SYNTHESES” (priority 2008, published 2009).

Structures are written as SMILES. Like-named read-outs stand apart in the source and are kept apart here.

Common to all, as to type: biochemical
In one experiment the target is T1, human TOR (Homo sapiens, UniProt P42345).
T1 construct: FLAG
Briefly: mTOR enzyme assay (DELFIA, His6-S6K substrate). The note with it: read-out: mTOR Kinase Avg. IC50.

The target in a further experiment is PI3K-alpha (Homo sapiens, UniProt P42336). As to the kind of experiment: PI3K-alpha fluorescence polarization assay. (In general: Fluorescence polarisation rises when a labelled molecule tumbles more slowly, as on binding a larger partner.)
Sequence of PI3K-alpha (P42336 whole entry, species assumed): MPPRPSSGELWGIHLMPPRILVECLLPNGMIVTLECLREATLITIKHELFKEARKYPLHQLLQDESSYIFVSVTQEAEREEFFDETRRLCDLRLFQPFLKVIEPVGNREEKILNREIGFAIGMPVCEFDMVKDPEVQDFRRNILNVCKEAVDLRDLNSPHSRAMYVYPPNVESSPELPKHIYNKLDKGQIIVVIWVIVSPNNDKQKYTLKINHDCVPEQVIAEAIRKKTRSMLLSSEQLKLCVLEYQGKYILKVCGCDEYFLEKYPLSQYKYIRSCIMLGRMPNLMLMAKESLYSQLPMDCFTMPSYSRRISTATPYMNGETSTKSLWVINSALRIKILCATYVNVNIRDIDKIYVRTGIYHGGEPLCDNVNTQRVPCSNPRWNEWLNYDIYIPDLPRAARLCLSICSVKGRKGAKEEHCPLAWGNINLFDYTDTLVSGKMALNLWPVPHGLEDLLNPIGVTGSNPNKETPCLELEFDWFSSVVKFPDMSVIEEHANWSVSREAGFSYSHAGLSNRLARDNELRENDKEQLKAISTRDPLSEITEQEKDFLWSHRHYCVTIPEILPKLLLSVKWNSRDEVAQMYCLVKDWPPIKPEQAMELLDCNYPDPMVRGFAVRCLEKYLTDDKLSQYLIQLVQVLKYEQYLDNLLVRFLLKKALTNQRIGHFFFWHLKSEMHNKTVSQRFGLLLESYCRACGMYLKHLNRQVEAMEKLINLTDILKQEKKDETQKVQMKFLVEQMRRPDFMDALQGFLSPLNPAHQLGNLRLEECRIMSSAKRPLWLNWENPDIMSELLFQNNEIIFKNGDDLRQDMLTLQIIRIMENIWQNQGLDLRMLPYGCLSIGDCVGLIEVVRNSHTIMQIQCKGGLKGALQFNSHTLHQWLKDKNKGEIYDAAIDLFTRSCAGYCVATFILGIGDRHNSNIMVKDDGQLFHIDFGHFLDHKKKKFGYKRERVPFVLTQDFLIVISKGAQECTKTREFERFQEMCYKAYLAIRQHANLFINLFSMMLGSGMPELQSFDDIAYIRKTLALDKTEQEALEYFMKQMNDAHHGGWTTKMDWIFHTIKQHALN
Sequence of PI3K-alpha (P27986 whole entry partner, species assumed): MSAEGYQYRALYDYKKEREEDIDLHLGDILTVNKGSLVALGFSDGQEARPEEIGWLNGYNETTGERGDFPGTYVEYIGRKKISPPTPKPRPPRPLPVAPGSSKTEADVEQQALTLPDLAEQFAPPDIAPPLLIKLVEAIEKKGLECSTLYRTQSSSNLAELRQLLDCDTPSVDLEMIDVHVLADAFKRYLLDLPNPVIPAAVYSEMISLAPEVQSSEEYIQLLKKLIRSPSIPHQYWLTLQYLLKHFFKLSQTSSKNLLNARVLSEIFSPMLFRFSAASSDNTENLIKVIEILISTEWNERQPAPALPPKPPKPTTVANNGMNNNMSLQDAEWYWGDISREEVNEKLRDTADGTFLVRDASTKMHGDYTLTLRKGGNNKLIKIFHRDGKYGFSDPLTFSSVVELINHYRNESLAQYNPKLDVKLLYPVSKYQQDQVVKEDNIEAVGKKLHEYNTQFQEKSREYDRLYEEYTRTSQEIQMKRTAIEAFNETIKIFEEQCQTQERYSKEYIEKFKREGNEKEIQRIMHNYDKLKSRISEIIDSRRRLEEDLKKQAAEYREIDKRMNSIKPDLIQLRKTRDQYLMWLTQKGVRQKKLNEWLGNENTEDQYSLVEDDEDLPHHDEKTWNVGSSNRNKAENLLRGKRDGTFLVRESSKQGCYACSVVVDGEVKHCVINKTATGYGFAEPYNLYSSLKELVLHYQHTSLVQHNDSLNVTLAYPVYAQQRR
Another experiment deals with PI3K-gamma (Homo sapiens, UniProt P48736). Briefly: PI3K-gamma fluorescence polarization assay. As to conditions: PI3Kγ Avg. IC50. An outline of the steps:
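Enzyme 5 ng; substrate diC8-PI(4,5)P2 2.5 μM; ATP 25 μM; 5 mM HEPES pH 7, 2.5 mM MgCl2; DMSO ≤2%; 1 h, 25° C. Quench 10 mM EDTA. Detect with GRP1 PH domain 100 nM + TMR-IP4 probe 5 nM by polarization.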

Sequence of PI3K-gamma (P48736 whole entry, species assumed, the tested form may be a part): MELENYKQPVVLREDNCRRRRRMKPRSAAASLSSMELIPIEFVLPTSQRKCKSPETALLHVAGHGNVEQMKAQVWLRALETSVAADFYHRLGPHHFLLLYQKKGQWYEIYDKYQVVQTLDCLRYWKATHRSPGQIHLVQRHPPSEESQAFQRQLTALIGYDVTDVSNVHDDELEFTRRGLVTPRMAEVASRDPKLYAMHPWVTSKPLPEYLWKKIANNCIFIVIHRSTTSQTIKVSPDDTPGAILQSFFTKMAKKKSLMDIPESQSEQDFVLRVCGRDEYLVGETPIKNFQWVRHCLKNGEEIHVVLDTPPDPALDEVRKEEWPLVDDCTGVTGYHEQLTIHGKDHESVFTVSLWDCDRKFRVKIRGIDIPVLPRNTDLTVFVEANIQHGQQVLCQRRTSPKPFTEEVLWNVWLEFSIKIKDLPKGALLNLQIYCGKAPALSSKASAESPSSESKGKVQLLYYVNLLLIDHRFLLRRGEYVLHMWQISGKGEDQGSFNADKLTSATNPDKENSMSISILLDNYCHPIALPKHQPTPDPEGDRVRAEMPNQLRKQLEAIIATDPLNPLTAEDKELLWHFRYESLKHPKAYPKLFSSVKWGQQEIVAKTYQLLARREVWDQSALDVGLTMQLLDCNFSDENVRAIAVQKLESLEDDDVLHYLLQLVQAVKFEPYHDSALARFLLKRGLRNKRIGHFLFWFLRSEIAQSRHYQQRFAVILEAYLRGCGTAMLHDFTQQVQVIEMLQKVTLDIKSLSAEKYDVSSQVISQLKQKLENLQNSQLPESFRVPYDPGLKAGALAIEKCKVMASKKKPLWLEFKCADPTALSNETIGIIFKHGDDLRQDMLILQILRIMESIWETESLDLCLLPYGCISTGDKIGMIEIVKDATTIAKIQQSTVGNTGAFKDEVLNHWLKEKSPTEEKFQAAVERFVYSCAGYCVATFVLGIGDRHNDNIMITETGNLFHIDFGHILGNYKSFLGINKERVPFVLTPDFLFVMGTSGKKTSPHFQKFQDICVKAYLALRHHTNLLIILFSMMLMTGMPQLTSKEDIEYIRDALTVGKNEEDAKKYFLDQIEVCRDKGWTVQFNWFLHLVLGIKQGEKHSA

As usually defined, the IC50 is the concentration needed to halve the response being measured. As for `COc1ccc(Br)c2c1C(=O)/C(=C/c1cn(C)c3cccc(-c4ccccc4)c13)O2` [Example 423, (2Z)-7-Bromo-4-methoxy-2-[(1-methyl-4-phenyl-1H-indol-3-yl)methylene]benzofuran-3(2H)-one], the values for the IC50 at human TOR, at PI3K-alpha (read-out: PI3Kα Avg. IC50) and against PI3K-gamma were more than 20000 nM, more than 10000 nM and more than 10000 nM, respectively.

On to `COc1ccc2c(c1)c(/C=C1\Oc3cc(O)cc(O)c3C1=O)c(C1CC1)n2CC(=O)N(C)C` [Example 444, 2-{2-Cyclopropyl-3-[(Z)-(4,6-dihydroxy-3-oxo-1-benzofuran-2(3H)-ylidene)methyl]-5-methoxy-1H-indol-1-yl}-N,N-dimethylacetamide], for which the IC50 on human TOR is 12.3 nM; at PI3K-alpha (read-out: PI3Kα Avg. IC50), 65.5 nM; at PI3K-gamma it was 100 nM.

In the case of `Cn1cc(/C=C2\Oc3c(Br)ccc(O)c3C2=O)c2c(-c3ccccc3)cccc21` [Example 428, (2Z)-7-Bromo-4-hydroxy-2-[(1-methyl-4-phenyl-1H-indol-3-yl)methylene]benzofuran-3(2H)-one], the figures for the half-maximal inhibitory concentration (IC50) on human TOR, on PI3K-alpha (read-out: PI3Kα Avg. IC50) and against PI3K-gamma were more than 20000 nM, more than 5000 nM and more than 5000 nM, respectively.

With `Cn1cc(/C=C2\Oc3cccc(O)c3C2=O)c2ccccc21` [Example 441, (2Z)-4-Hydroxy-2-[(1-methyl-1H-indol-3-yl)methylene]benzofuran-3(2H)-one], the IC50 on human TOR was more than 20000 nM; on PI3K-alpha (read-out: PI3Kα Avg. IC50) it was more than 10000 nM; against PI3K-gamma it was more than 10000 nM.

As to `COc1ccc2c(c1)c(/C=C1\Oc3cc(O)cc(O)c3C1=O)c(-c1cncnc1)n2CCN1CCN(C)CC1` [Example 463, (2Z)-4,6-Dihydroxy-2-({5-methoxy-1-[2-(4-methylpiperazin-1-yl)ethyl]-2-pyrimidin-5-yl-1H-indol-3-yl}methylene)-1-benzofuran-3(2H)-one], the IC50 at human TOR is 2000 nM; on PI3K-alpha (read-out: PI3Kα Avg. IC50) it was 51.5 nM; on PI3K-gamma, 971 nM.

As for `CNCCNC(=O)c1ccc(NC(=O)Nc2ccc3c(c2)C(=O)/C(=C/c2c(C)n(CCN4CCN(C)CC4)c4ccc(OC)cc24)O3)cc1` [Compound 669, 4-({[(2Z)-2-({5-methoxy-2-methyl-1-[2-(4-methylpiperazin-1-yl)ethyl]-1H-indol-3-yl}methylidene)-3-oxo-2,3-dihydro-1-benzofuran-5-yl]carbamoyl}amino)-N-[2-(methylamino)ethyl]benzamide], the IC50 on human TOR was 4 nM; at PI3K-alpha (read-out: PI3Kα Avg. IC50) it was 0.6 nM; against PI3K-gamma it was 29 nM.

As for `COc1ccc2c(c1)c(/C=C1\Oc3cc(O)cc(Cl)c3C1=O)c(C)n2CCN1CCN(C)CC1` [Example 467, (2Z)-4-Chloro-6-hydroxy-2-({5-methoxy-2-methyl-1-[2-(4-methylpiperazin-1-yl)ethyl]-1H-indol-3-yl}methylene)-1-benzofuran-3(2H)-one], the IC50 at human TOR was found to be 425 nM; at PI3K-alpha (read-out: PI3Kα Avg. IC50), 50.5 nM; against PI3K-gamma, 1790 nM.

For `O=C1/C(=C/c2c(-c3ccc(Cl)cc3)[nH]c3ccccc23)Oc2cc(O)cc(O)c21` [Example 44, (2Z)-2-{[2-(4-chlorophenyl)-1H-indol-3-yl]methylene}-4,6-dihydroxy-1-benzofuran-3(2H)-one], the 50% inhibitory concentration (IC50) turned out to be 190 nM on human TOR, 542 nM at PI3K-alpha (PI3Kα Avg. IC50) and 1460 nM against PI3K-gamma.

`CNc1ccc(-c2cccc3c2c(/C=C2\Oc4cc(O)cc(O)c4C2=O)cn3C)cc1` [Example 389, (2Z)-4,6-Dihydroxy-2-({1-methyl-4-[4-(methylamino)phenyl]-1H-indol-3-yl}methylene)-1-benzofuran-3(2H)-one]: the IC50 at human TOR is 11.5 nM; at PI3K-alpha (read-out: PI3Kα Avg. IC50), 1870 nM; against PI3K-gamma, 9860 nM.

As for `Cn1cc(/C=C2\Oc3cccc(O)c3C2=O)c2c(-c3ccccc3)cccc21` [Example 400, (2Z)-4-Hydroxy-2-[(1-methyl-4-phenyl-1H-indol-3-yl)methylene]-1-benzofuran-3(2H)-one], the results for the concentration for half-maximal inhibition (IC50) on human TOR, on PI3K-alpha (read-out: PI3Kα Avg. IC50) and at PI3K-gamma were more than 19500 nM, more than 10000 nM and more than 10000 nM, respectively.

As to `COc1ccc2[nH]c(-c3c(C)nn(C)c3C)c(/C=C3\Oc4ccc(NC(=O)Nc5ccc(C(=O)NCCN(C)C)cc5)cc4C3=O)c2c1` [Compound 711, N-[2-(dimethylamino)ethyl]-4-({[(2Z)-2-{[5-methoxy-2-(1,3,5-trimethyl-1H-pyrazol-4-yl)-1H-indol-3-yl]methylidene}-3-oxo-2,3-dihydro-1-benzofuran-5-yl]carbamoyl}amino)benzamide], the figures for the 50% inhibitory concentration (IC50) at human TOR, at PI3K-alpha (read-out: PI3Kα Avg. IC50) and at PI3K-gamma were less than 1 nM, 0.4 nM and 2.25 nM, respectively.

As for `Cn1cc(/C=C2\Oc3cc(O)cc(O)c3C2=O)c2c(-c3ccc(F)cc3)cccc21` [Example 364, (2Z)-2-{[4-(4-Fluorophenyl)-1-methyl-1H-indol-3-yl]methylene}-4,6-dihydroxy-1-benzofuran-3(2H)-one], the values for the 50% inhibitory concentration (IC50) at human TOR, at PI3K-alpha (read-out: PI3Kα Avg. IC50) and on PI3K-gamma were 123 nM, 698 nM and 1280 nM, respectively.

As to `CNC(=O)Nc1ccc2c(c1)C(=O)/C(=C/c1c(-c3cnn(C)c3)[nH]c3c(F)cc(OC)cc13)O2` [Compound 718, 1-[(2Z)-2-{[7-fluoro-5-methoxy-2-(1-methyl-1H-pyrazol-4-yl)-1H-indol-3-yl]methylidene}-3-oxo-2,3-dihydro-1-benzofuran-5-yl]-3-methylurea], the IC50 at human TOR turned out to be 2 nM; on PI3K-alpha (read-out: PI3Kα Avg. IC50) it was 2.75 nM; on PI3K-gamma, 9.5 nM.

On to `CCn1c(C)c(/C=C2\Oc3ccc(NC(=O)Nc4ccc(C(=O)N(C)CCCN(C)C)cc4)cc3C2=O)c2cc(OC)ccc21` [Compound 657, N-[3-(dimethylamino)propyl]-4-[({(2Z)-2-[(1-ethyl-5-methoxy-2-methyl-1H-indol-3-yl)methylene]-3-oxo-2,3-dihydro-1-benzofuran-5-yl}carbamoyl)amino]-N-methylbenzamide], for which the IC50 at human TOR was 84 nM; at PI3K-alpha (read-out: PI3Kα Avg. IC50), 0.4 nM; against PI3K-gamma it was 3.5 nM.

For the compound `Cn1cc(C=C2Oc3cc(O)cc(O)c3C2=O)c2cc(F)ccc21` [Example 227, 2-[(5-fluoro-1-methyl-1H-indol-3-yl)methylene]-4,6-dihydroxy-1-benzofuran-3(2H)-one], the IC50 at human TOR is 3800 nM; on PI3K-alpha (read-out: PI3Kα Avg. IC50), 757 nM; against PI3K-gamma, 7510 nM.

With `COc1ccc2c(c1)c(/C=C1\Oc3cc(O)ccc3C1=O)c(C1CCCC1)n2CCN1CCN(C)CC1` [Example 411, (2Z)-2-({2-Cyclopentyl-5-methoxy-1-[2-(4-methylpiperazin-1-yl)ethyl]-1H-indol-3-yl}methylene)-6-hydroxy-1-benzofuran-3(2H)-one], the half-maximal inhibitory concentration (IC50) on human TOR was 47 nM; on PI3K-alpha (read-out: PI3Kα Avg. IC50), 11.5 nM; against PI3K-gamma, 984 nM.

On to `COc1ccc2c(c1)c(/C=C1\Oc3ccc(NC(=O)Nc4ccc(NC(=O)CCN(C)C)cc4)cc3C1=O)c(C)n2CCN1CCN(C)CC1` [Compound 685, N-[4-({[(2Z)-2-({5-methoxy-2-methyl-1-[2-(4-methylpiperazin-1-yl)ethyl]-1H-indol-3-yl}methylidene)-3-oxo-2,3-dihydro-1-benzofuran-5-yl]carbamoyl}amino)phenyl]-N3,N3-dimethyl-b-alaninamide], for which the IC50 on human TOR was 16 nM; on PI3K-alpha (read-out: PI3Kα Avg. IC50) it was 0.8 nM; against PI3K-gamma, 115 nM.

Take `COc1ccc2[nH]cc(/C=C3\Oc4ccc(NC(=O)Nc5ccc(C(=O)N6CCN(C)CC6)cc5)cc4C3=O)c2c1` [Compound 643, 1-{(2Z)-2-[(5-methoxy-1H-indol-3-yl)methylene]-3-oxo-2,3-dihydro-1-benzofuran-5-yl}-3-{4-[(4-methylpiperazin-1-yl)carbonyl]phenyl}urea]: the figures for the IC50 at human TOR, at PI3K-alpha (read-out: PI3Kα Avg. IC50) and on PI3K-gamma were more than 4000 nM, 0.9 nM and 4 nM, respectively.

With `COc1ccc2[nH]c(-c3c(C)nn(C)c3C)c(/C=C3\Oc4ccc(NC(=O)Nc5ccc(C(=O)N6CCC(N(C)C)CC6)cc5)cc4C3=O)c2c1` [Compound 702, 1-(4-{[4-(dimethylamino)piperidin-1-yl]carbonyl}phenyl)-3-[(2Z)-2-{[5-methoxy-2-(1,3,5-trimethyl-1H-pyrazol-4-yl)-1H-indol-3-yl]methylidene}-3-oxo-2,3-dihydro-1-benzofuran-5-yl]urea], the IC50 was 1 nM on human TOR, 0.3 nM at PI3K-alpha (read-out: PI3Kα Avg. IC50) and 3 nM at PI3K-gamma.

On to `CNC(=O)Nc1ccc2c(c1)C(=O)/C(=C/c1c(N3CCN(C)CC3)n(CCN3CCN(C)CC3)c3ccc(OC)cc13)O2` [Compound 636, 1-[(2Z)-2-({5-methoxy-2-(4-methylpiperazin-1-yl)-1-[2-(4-methylpiperazin-1-yl)ethyl]-1H-indol-3-yl}methylene)-3-oxo-2,3-dihydro-1-benzofuran-5-yl]-3-methylurea], for which the figures for the concentration for half-maximal inhibition (IC50) at human TOR, on PI3K-alpha (read-out: PI3Kα Avg. IC50) and against PI3K-gamma were 165 nM, 4 nM and 1010 nM, respectively.

Turning to `CCn1c(C)c(/C=C2\Oc3ccc(NC(=O)Nc4ccc(C(=O)N5CCOCC5)cc4)cc3C2=O)c2cc(OC)ccc21` [Compound 686, 1-{(2Z)-2-[(1-ethyl-5-methoxy-2-methyl-1H-indol-3-yl)methylidene]-3-oxo-2,3-dihydro-1-benzofuran-5-yl}-3-[4-(morpholin-4-ylcarbonyl)phenyl]urea], the IC50 turned out to be 110 nM at human TOR, 0.7 nM on PI3K-alpha (read-out: PI3Kα Avg. IC50) and 5 nM against PI3K-gamma.

Turning to `CCn1c(C)c(/C=C2\Oc3ccc(NC(=O)Nc4ccc(S(=O)(=O)N(C)CCN(C)C)cc4)cc3C2=O)c2cc(OC)ccc21` [Compound 679, N-[2-(dimethylamino)ethyl]-4-[({(2Z)-2-[(1-ethyl-5-methoxy-2-methyl-1H-indol-3-yl)methylidene]-3-oxo-2,3-dihydro-1-benzofuran-5-yl}carbamoyl)amino]-N-methylbenzenesulfonamide], the IC50 was 370 nM on human TOR, 8 nM at PI3K-alpha (read-out: PI3Kα Avg. IC50) and 67.5 nM on PI3K-gamma.
